The values below come from patent publication US9220721B2, “Methods for heart regeneration” (The Salk Institute for Biological Studies, priority 2012, dated 2015).

In this series the test system is cmlc2:GFP transgenic fish embryos. Description: Morpholino and microRNA injections in zebrafish embryos. In kind it is in vivo. The note with it: injection at one-cell stage. Here is the method: Morpholino and microRNA Injections in Zebrafish Embryos. Morpholinos (Gene Tools) were dissolved in water at a 2 mM stock concentration and diluted to a 2 ng/nl working concentration in PBS/phenol red solution. Embryo injections were performed by injecting ˜1 nl morpholino solution at the 1-cell stage using a FemtoJet (Eppendorf). For microRNA mimic injection, a miR-99/100 equimolar mixture at 2 ng/nl in PBS was employed. Morphants were evaluated at 24, 48 and 72 h in a StereoLumar stereoscope (Zeiss).

With “Fntb morpholino: translation-blocking morpholino 5′-GCGCCTCTTCCATGATGAGCTCTCA-3′ (SEQ ID NO: 1128) (all phosphorodiamidate morpholino (PMO))”, the ventricle size entry was “significantly reduced ventricle size”.

Consider “Smarca5 morpholino: translation-blocking morpholino 5′-CTTCTTCCCGCTGCTGCTCCATGCT-3′ (SEQ ID NO: 1129) (all phosphorodiamidate morpholino (PMO))”, for which the ventricle size result is given as “significantly reduced ventricle size”.
